Experimental data published in PubChem BioAssay AID179 (DTP/NCI, 2004).
The source made the active and inactive calls.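 How the source made its calls: active means compounds giving half or more protection of infected cells from virus-caused growth loss, again on retest; inactive means the rest.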 Where a SMILES comes first, the peptide text is derived from it. Bridges are numbered along the chain shown (N, C = ends). Roman numbers before positions name the chains, in order. The star is where a group is joined. Cbz = O=C(OCc1ccccc1)*

Tested on: CEM cells HIV-1 protection, formazan growth assay
Assay: NCI AIDS Antiviral Assay
Details: for IC50: measured here: growth of uninfected CEM cells
Outline: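 Soluble formazan readout of cell growth; CEM cells ± HIV-1; 5 drug concs. ≥50% protection → retest; ≥50% again = moderately active; reproducible 100% = confirmed active.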

## COc1ccccc1NC(=O)/C(=C\N1C(=O)/C(=C/c2cc(OC)c(OC)c(OC)c2)SC1=S)C(C)=O
  EC50: > 100 µM
  IC50: 12.9 µM

## NC(CSSCC(NC(=O)OCc1ccccc1)C(=O)O)C(=O)O (configuration not stated)
  EC50: > 200 µM
  IC50: > 200 µM

## Cc1nc2ccccc2c(=O)n1NC(=O)c1ccc(CS)cc1
  outcome: inactive

## O=C(CSC(=S)N1CCCCC1)Nc1nc2c(s1)CCCC2
  EC50: > 38 µM
  IC50: > 38 µM

## COC(=O)C1=CCC(n2cnc3c(Cl)nc(N)nc32)CC1 (configuration not stated)
  EC50: > 115 µM
  IC50: 47.9 µM

## NC(Cc1cnc[nH]1)C(=O)NC(Cc1ccc(O)c(O)c1)C(=O)NCC(=O)N/C=C\c1c[nH]c2cc(Br)ccc12 (configuration not stated)
  EC50: > 81.3 µM
  IC50: > 81.3 µM

## CC(=O)Oc1cccc2c1[nH]c(=O)c1c(OC(C)=O)c3c(cc12)OCO3
  outcome: inactive

## O=c1c2c3c(sc2nc2n1N=C(c1ccc(Cl)cc1)CS2)CCCC3
  EC50: > 200 µM
  IC50: > 200 µM

## COc1ccc(C(OCC2OC(n3ccc(NC(=O)c4ccccc4)nc3=O)CC2OP2(=S)SCCS2)(c2ccccc2)c2ccc(OC)cc2)cc1 (configuration not stated)
  EC50: > 100 µM
  IC50: 44.7 µM

## COc1ccc(C2CC(c3ccccc3)=Nc3ccccc3S2)cc1OC (configuration not stated)
  EC50: > 39.8 µM
  IC50: 8.51 µM

## Clc1ccc(-c2c(C3=NCCCN3)nnn2-c2ccc(Cl)cc2)cc1
  EC50: > 490 µM
  IC50: 30.9 µM

## O=C(O)CC(O)(CC(=O)O)C(=O)O
  outcome: inactive

## Clc1ccccc1C(c1ccccc1)(c1ccccc1)n1ccnc1
  EC50: > 200 µM
  IC50: 21.4 µM

## CCC1=CCC23C(=O)C=CC(=O)C2(C1)C(=O)c1cccc(OC)c1C3=O (configuration not stated)
  EC50: > 20 µM
  IC50: 1.05 µM

## Cc1nc2c(=O)n(C)c(=O)nc-2n(-c2ccc(Cl)cc2)c1C
  outcome: inactive

## COc1ccc2c(c1)C13CCCC(C)(C(=O)NC1)C3CC2 (configuration not stated)
  EC50: > 200 µM
  IC50: > 200 µM

## CCN(CC)c1cc(OCc2ccccc2)cc2c1[C@H]1COc3cc(OC)ccc3[C@H]1O2
  outcome: inactive

## CCOc1ccc(C2Oc3c(cccc3OC)C=C2[N+](=O)[O-])cc1OCC (configuration not stated)
  EC50: > 200 µM
  IC50: 3.02 µM

## CC(C)N(C(=O)C12CC3CC(CC(C3)C1)C2)C(C)C
  EC50: > 135 µM
  IC50: 41.7 µM

## COc1ccc(C2=C(N)c3cc(OC)ccc3C2=O)cc1
  EC50: > 200 µM
  IC50: > 200 µM

## CC1=C(C#N)C2C(=C(N)Oc3ccccc32)C(N)=N1 (configuration not stated)
  EC50: > 200 µM
  IC50: 27.5 µM

## CCCCCC=C(c1cc(Br)c(O)c(C(=O)O)c1)c1cc(Br)c(O)c(C(=O)O)c1
  EC50: > 813 µM
  IC50: 151 µM

## C=CCC1(C#N)C(=S)NC2=C(C(=O)CC(C)(C)C2)C1c1ccccc1 (configuration not stated)
  EC50: > 200 µM
  IC50: > 200 µM

## Cn1c(=O)cc(C=Nc2ccc(S(N)(=O)=O)cc2)c2ccccc21
  EC50: > 200 µM
  IC50: 1.51 µM

## CCN(CC)CCSc1nc2c([N+](=O)[O-])cccc2[nH]1
  outcome: inactive

## CCOC(=O)N[C@@H]1C2CC(=O)C(O2)[C@@H]1OC (some centres not stated)
  outcome: inactive

## CC(=O)O[C@@H]1O[Si](C(C)(C)C)(C(C)(C)C)[C@H](C)[C@H]1C
  EC50: > 100 µM
  IC50: > 100 µM

## O=C(NN1C(=O)C(Cl)C1c1ccc([N+](=O)[O-])cc1)c1ccccc1O (configuration not stated)
  EC50: > 10.5 µM
  IC50: > 10.5 µM

## CSc1ccc(Cc2cc(C(C)(C)C)cc(C(C)(C)C)c2O)cc1
  outcome: inactive

## Cc1cccc(-n2c(C)nc3ccc(NC4OC(CO)C(O)C(O)C4O)cc3c2=O)c1 (configuration not stated)
  EC50: > 200 µM
  IC50: > 200 µM

## CC(C)CC1C(=O)NCCC(NC(=O)C(Cc2ccc(OC(C)(C)C)cc2)NC(=O)OC(C)(C)C)C(=O)NC(Cc2ccccc2)C(=O)NC(Cc2ccccc2)NC1=O (configuration not stated)
  EC50: > 63.1 µM
  IC50: 7.24 µM

## C=CCCCCCCCCCP(=O)(c1ccccc1)c1ccc2c(c1)OCCOCCOCCOCCO2 (configuration not stated)
  EC50: > 200 µM
  IC50: 1.7 µM

## C/C(=C/OS(=O)(=O)C(F)(F)F)c1ccccc1
  EC50: > 200 µM
  IC50: 57.5 µM

## Nc1cc(S(=O)(=O)O)c(O)c2c1C(=O)c1c(O)c(S(=O)(=O)O)cc(N)c1C2=O
  outcome: inactive

## CCN(CC)CCN(C)CCc1ccc(Br)cc1
  EC50: > 126 µM
  IC50: 112 µM

## COc1cc2c(=O)cnoc2cc1O
  EC50: > 200 µM
  IC50: 26.3 µM

## COc1c2c(cc3occ(-c4ccc(CC=C(C)C)cc4)c(=O)c13)OC(C)(C)C=C2
  EC50: > 200 µM
  IC50: 14.1 µM

## COc1ccc(-c2cc(-c3ccncc3)nc(N)c2-c2ccc(F)cc2)cc1
  EC50: > 174 µM
  IC50: > 174 µM

## O=S(OCC1COS(=O)O1)OCC1COS(=O)O1 (configuration not stated)
  EC50: > 776 µM
  IC50: 77.6 µM

## CCOC(=O)C(NO)C(Sc1ccccc1)c1ccc(OC)cc1 (configuration not stated)
  outcome: inactive

## NNC(=S)NNC(N)=O
  EC50: 58.9 µM
  IC50: > 200 µM

## CC(C)C(NC(=O)C(CSSCC(NC(=O)OCc1ccccc1)C(=O)NC(C(=O)O)C(C)C)NC(=O)OCc1ccccc1)C(=O)O (stereo not drawn) (I: Cbz-Cys-Val-OH / II: Cbz-Cys-Val-OH; disulfide I:1-II:1; configuration not given here)
  EC50: > 200 µM
  IC50: 112 µM

## CN/N=C(\C)C(CN(C)C)C(c1ccccc1)c1c(O)c2ccccc2oc1=O (configuration not stated)
  EC50: > 135 µM
  IC50: 102 µM

## CNC(=S)NNC1=NCCCCN1
  EC50: > 200 µM
  IC50: 110 µM

## c1ccc2nc(SSc3ccc4ccccc4n3)ccc2c1
  EC50: > 200 µM
  IC50: 24 µM

## O=[N+]([O-])c1ccc(C=NC23CC4CC(CC(C4)C2)C3)cc1
  outcome: inactive

## O=C(Nc1ccc(N=Nc2ccccc2)cc1)Sc1ccccc1C(=O)O
  outcome: inactive
